According to patent US11857519B2, “Compounds and methods for the targeted degradation of enhancer of zeste homolog 2 polypeptide” (Arvinas Operations, Inc., priority 2016, dated 2024):

These compounds were tested against T1, EZH2 (Homo sapiens, UniProt Q15910) (assay: Cellular assay of target protein degradation (VCaP cells, ELISA)). Settings: 4 hours, protein degradation range at indicated concentration (relative to DMSO control).
T1 construct: Protocol of the Cellular Assay of Target Protein Degradation (VCaP Cells, ELISA); endogenous in cells; host or cells: VCaP cells
T1 sequence (Q15910 whole entry): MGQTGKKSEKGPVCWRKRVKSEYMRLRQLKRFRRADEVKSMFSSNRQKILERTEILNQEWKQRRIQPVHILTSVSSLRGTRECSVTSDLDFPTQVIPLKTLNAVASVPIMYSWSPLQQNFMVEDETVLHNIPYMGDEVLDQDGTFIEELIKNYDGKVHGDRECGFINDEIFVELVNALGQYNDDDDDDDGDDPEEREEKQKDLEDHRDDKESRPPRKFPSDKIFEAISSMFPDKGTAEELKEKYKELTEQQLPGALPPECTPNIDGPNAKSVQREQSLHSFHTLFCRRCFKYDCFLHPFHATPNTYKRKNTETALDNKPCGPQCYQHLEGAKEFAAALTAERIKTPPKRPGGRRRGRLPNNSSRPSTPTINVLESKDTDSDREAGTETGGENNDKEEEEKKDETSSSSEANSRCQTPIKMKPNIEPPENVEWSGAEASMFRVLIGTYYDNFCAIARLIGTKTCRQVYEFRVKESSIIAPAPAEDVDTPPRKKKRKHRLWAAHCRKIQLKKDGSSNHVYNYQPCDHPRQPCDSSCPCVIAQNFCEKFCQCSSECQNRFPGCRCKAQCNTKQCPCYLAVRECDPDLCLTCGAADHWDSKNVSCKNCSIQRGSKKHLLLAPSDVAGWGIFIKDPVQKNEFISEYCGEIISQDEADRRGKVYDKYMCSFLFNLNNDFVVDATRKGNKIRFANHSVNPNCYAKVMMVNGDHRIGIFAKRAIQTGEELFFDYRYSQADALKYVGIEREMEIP
T1 sequence (O75530 whole entry partner): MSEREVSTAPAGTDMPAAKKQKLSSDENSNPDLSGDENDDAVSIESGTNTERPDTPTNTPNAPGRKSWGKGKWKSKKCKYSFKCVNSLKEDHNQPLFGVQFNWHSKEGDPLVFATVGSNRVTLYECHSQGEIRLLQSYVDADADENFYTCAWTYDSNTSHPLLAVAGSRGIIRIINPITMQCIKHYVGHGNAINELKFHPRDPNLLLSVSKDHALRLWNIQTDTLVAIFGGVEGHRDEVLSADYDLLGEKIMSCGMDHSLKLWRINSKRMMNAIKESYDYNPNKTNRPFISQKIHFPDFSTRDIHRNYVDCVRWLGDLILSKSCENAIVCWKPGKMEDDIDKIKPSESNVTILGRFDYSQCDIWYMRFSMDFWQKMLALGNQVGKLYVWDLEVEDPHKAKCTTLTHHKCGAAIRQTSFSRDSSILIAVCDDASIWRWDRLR
T1 sequence (Q15022 whole entry partner): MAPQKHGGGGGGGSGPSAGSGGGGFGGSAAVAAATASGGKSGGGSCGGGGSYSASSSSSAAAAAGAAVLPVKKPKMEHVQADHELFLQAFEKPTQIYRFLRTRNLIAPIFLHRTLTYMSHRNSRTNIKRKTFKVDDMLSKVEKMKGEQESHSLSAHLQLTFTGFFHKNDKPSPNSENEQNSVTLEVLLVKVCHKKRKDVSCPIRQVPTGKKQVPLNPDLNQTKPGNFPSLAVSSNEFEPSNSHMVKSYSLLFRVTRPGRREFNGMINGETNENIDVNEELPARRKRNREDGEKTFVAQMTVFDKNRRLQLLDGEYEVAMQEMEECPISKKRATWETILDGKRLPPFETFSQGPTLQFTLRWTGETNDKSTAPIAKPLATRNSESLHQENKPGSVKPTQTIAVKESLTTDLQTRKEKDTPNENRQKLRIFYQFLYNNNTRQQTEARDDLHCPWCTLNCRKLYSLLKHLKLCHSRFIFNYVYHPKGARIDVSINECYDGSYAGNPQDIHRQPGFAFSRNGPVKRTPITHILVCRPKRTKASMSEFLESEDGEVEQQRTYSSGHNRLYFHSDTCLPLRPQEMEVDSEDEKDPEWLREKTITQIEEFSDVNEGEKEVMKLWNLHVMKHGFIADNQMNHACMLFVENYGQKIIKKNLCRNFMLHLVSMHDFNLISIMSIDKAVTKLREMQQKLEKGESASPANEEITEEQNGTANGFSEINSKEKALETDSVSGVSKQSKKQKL
Format: cell-based
Method in brief: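 VCaP cells grown ≥3 days in RPMI with 5% CSS, then dosed with compounds in 0.1% DMSO for 4 h. Lysates analysed by sandwich ELISA for EZH2 with TMB readout at 450 nm, 562 nm used for background subtraction.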

Question: How did the “percent target protein degradation class” value turn out when `CCN(c1cc(-c2ccc(OCCCOCCCOCC(=O)N[C@H](C(=O)N3C[C@H](O)C[C@H]3C(=O)NCc3ccc(-c4scnc4C)cc3)C(C)(C)C)cc2)cc(C(=O)NCc2c(C)cc(C)[nH]c2=O)c1C)C1CCOCC1` [Compound 48, (2S,4R)-1-[(2S)-2-[2-(3-{3-[4-(3-{[(4,6-dimethyl-2-oxo-1,2-dihydropyridin-3-yl)methyl]carbamoyl}-5-[ethyl(oxan-4-yl)amino]-4-methylphenyl)phenoxy]propoxy}propoxy)acetamido]-3,3-dimethylbutanoyl]-4-hydroxy-N-{[4-(4-methyl-1,3-thiazol-5-yl)phenyl]methyl}pyrrolidine-2-carboxamide] was run?
Answer: A (A = degradation more than 60%)

Question: With `CCN(c1cc(-c2ccc(CN3CCN(CCCOCC(=O)N[C@H](C(=O)N4C[C@H](O)C[C@H]4C(=O)N[C@@H](C)c4ccc(-c5scnc5C)cc4)C(C)(C)C)CC3)cc2)cc(C(=O)NCc2c(C)cc(C)[nH]c2=O)c1C)C1CCOCC1` [Compound 118, (2S,4R)-1-((S)-2-(2-(3-(4-((3′-(((4,6-dimethyl-2-oxo-1,2-dihydropyridin-3-yl)methyl)carbamoyl)-5′-(ethyl(tetrahydro-2H-pyran-4-yl)amino)-4′-methyl-[1,1′-biphenyl]-4-yl)methyl)piperazin-1-yl)propoxy)acetamido)-3,3-dimethylbutanoyl)-4-hydroxy-N-((S)-1-(4-(4-methylthiazol-5-yl)phenyl)ethyl)pyrrolidine-2-carboxamide] as the compound, how does the “percent target protein degradation class” value read?
Answer: A (A = degradation more than 60%)

Question: Which “percent target protein degradation class” value does the source give for `CCN(c1cc(-c2ccc(CCCOCCCCC(=O)N[C@H](C(=O)N3C[C@H](O)C[C@H]3C(=O)N[C@@H](C)c3ccc(-c4scnc4C)cc3)C(C)(C)C)cc2)cc(C(=O)NCc2c(C)cc(C)[nH]c2=O)c1C)C1CCOCC1` [Compound 88, (2S,4R)-1-((S)-2-(5-(3-(3′-(((4,6-dimethyl-2-oxo-1,2-dibydropyridin-3-yl)methyl)carbamoyl)-5′-(ethyl(tetrahydro-2H-pyran-4-yl)amino)-41-methyl-[1,1′-biphenyl]-4-yl)propoxy)pentanamido)-3,3-dimethylbutanoyl)-4-hydroxy-N-((S)-1-(4-(4-methylthiazol-5-yl)phenyl)ethyl)pyrrolidine-2-carboxamide] here?
Answer: A (A = degradation more than 60%)

Question: For `CCN(c1cc(-c2ccc(OCCCOc3ccc4c(c3)C(=O)N([C@H](C(=O)N3C[C@H](O)C[C@H]3C(=O)N[C@@H](C)c3ccc(-c5scnc5C)cc3)C(C)C)C4)cc2)cc(C(=O)NCc2c(C)cc(C)[nH]c2=O)c1C)C1CCOCC1` [Compound 98, (2S,4R)-1-((S)-2-(6-(3-((3′-(((4,6-dimethyl-2-oxo-1,2-dihydropyridin-3-yl)methyl)carbamoyl)-5′-(ethyl(tetrahydro-2H-pyran-4-yl)amino)-4′-methyl-[1,1′-biphenyl]-4-yl)oxy)propoxy)-1-oxoisoindolin-2-yl)-3-methylbutanoyl)-4-hydroxy-N-((S)-1-(4-(4-methylthiazol-5-yl)phenyl)ethyl)pyrrolidine-2-carboxamide], which “percent target protein degradation class” value is on record?
Answer: B (B = degradation between 30% and 60%)

Question: For `CCN(c1cc(-c2ccc(OCCCOCCOc3cc(-c4scnc4C)ccc3CNC(=O)[C@@H]3C[C@@H](O)CN3C(=O)[C@H](C(C)C)N3Cc4ccccc4C3=O)cc2)cc(C(=O)NCc2c(C)cc(C)[nH]c2=O)c1C)C1CCOCC1` [Compound 56, (2S,4R)-N-{[2-(2-{3-[4-(3-{[(4,6-dimethyl-2-oxo-1,2-dihydropyridin-3-yl)methyl]carbamoyl}-5-[ethyl(oxan-4-yl)amino]-4-methylphenyl)phenoxy]propoxy}ethoxy)-4-(4-methyl-1,3-thiazol-5-yl)phenyl]methyl}-4-hydroxy-1-[(2S)-3-methyl-2-(1-oxo-2,3-dihydro-1H-isoindol-2-yl)butanoyl]pyrrolidine-2-carboxamide], which “percent target protein degradation class” value is on record?
Answer: B (B = degradation between 30% and 60%)

Question: Which “percent target protein degradation class” value does the source give for `CCN(c1cc(-c2ccc(OCCCCOCCOCCOc3cc(-c4scnc4C)ccc3CNC(=O)[C@@H]3C[C@@H](O)CN3C(=O)[C@H](C(C)C)N3Cc4ccccc4C3=O)cc2)cc(C(=O)NCc2c(C)cc(C)[nH]c2=O)c1C)C1CCOCC1` [Compound 55, (2S,4R)-N-({2-[2-(2-{4-[4-(3-{[(4,6-dimethyl-2-oxo-1,2-dihydropyridin-3-yl)methyl]carbamoyl}-5-[ethyl(oxan-4-yl)amino]-4-methylphenyl)phenoxy]butoxy}ethoxy)ethoxy]-4-(4-methyl-1,3-thiazol-5-yl)phenyl}methyl)-4-hydroxy-1-[(2S)-3-methyl-2-(1-oxo-2,3-dihydro-1H-isoindol-2-yl)butanoyl]pyrrolidine-2-carboxamide] here?
Answer: B (B = degradation between 30% and 60%)

Question: `CCN(c1cc(-c2ccc(OCCOCCOCCOc3ccc(CCN4CC[C@@H]5CCN(C(=O)[C@@H](NC(=O)[C@H](C)NC)C6CCCCC6)[C@@H]5C4)cc3)cc2)cc(C(=O)NCc2c(C)cc(C)[nH]c2=O)c1C)C1CCOCC1` (racemic) [Compound 26, 5-[4-(2-{2-[2-(4-{2-[(3aR,7aS)-1-[(2S)-2-cyclohexyl-2-[(2S)-2-(methylamino)propanamido]acetyl]-octahydro-1H-pyrrolo[2,3-c]pyridin-6-yl]ethyl}phenoxy)ethoxy]ethoxy}ethoxy)phenyl]-N-[(4,6-dimethyl-2-oxo-1,2-dihydropyridin-3-yl)methyl]-3-[ethyl(oxan-4-yl)amino]-2-methylbenzamide] was tested. Which “percent target protein degradation class” value did it give?
Answer: B (B = degradation between 30% and 60%)

Question: For `CCN(c1cc(-c2ccc(OCCCOCC(=O)N[C@H](C(=O)N3C[C@H](O)C[C@H]3C(=O)N[C@@H](C)c3ccc(-c4scnc4C)cc3)C(C)(C)C)cc2)cc(C(=O)NCc2c(C)cc(C)[nH]c2=O)c1C)C1CCOCC1` [Compound 95, (2S,4R)-1-((S)-2-(2-(3-((3′-(((4,6-dimethyl-2-oxo-1,2-dihydropyridin-3-yl)methyl)carbamoyl)-5′-(ethyl(tetrahydro-2H-pyran-4-yl)amino)-4′-methyl-[1,1′-biphenyl]-4-yl)oxy)propoxy)acetamido)-3,3-dimethylbutanoyl)-4-hydroxy-N-((S)-1-(4-(4-methylthiazol-5-yl)phenyl)ethyl)pyrrolidine-2-carboxamide], which “percent target protein degradation class” value is on record?
Answer: A (A = degradation more than 60%)

Question: Which “percent target protein degradation class” value does the source give for `CCN(c1cc(-c2ccc(OCCOCCOCCOCCOCCOc3ccc(-c4csc([C@@H]5CCCN5C(=O)[C@@H](NC(=O)[C@H](C)NC)C5CCCCC5)n4)c4ccccc34)cc2)cc(C(=O)NCc2c(C)cc(C)[nH]c2=O)c1C)C1CCOCC1` [Compound 30, 5-(4-{[1-(4-{2-[(2S)-1-[(2S)-2-cyclohexyl-2-[(2S)-2-(methylamino)propanamido]acetyl]pyrrolidin-2-yl]-1,3-thiazol-4-yl}naphthalen-1-yl)-1,4,7,10,13-pentaoxapentadecan-15-yl]oxy}phenyl)-N-[(4,6-dimethyl-2-oxo-1,2-dihydropyridin-3-yl)methyl]-3-[ethyl(oxan-4-yl)amino]-2-methylbenzamide] here?
Answer: B (B = degradation between 30% and 60%)

Question: With `Cc1cc(C)c(CNC(=O)c2c(C)n(C(C)C3CCN(C(=O)COCCOCCOCC(=O)N[C@H](C(=O)N4C[C@H](O)C[C@H]4C(=O)NCc4ccc(-c5scnc5C)cc4)C(C)(C)C)CC3)c3ccccc23)c(=O)[nH]1` (stereo partly drawn) [Compound 9, N-[(4,6-dimethyl-2-oxo-1,2-dihydropyridin-3-yl)methyl]-1-{1-[1-(2-{2-[2-({[(2S)-1-[(2S,4R)-4-hydroxy-2-({[4-(4-methyl-1,3-thiazol-5-yl)phenyl]methyl}carbamoyl)pyrrolidin-1-yl]-3,3-dimethyl-1-oxobutan-2-yl]carbamoyl}methoxy)ethoxy]ethoxy}acetyl)piperidin-4-yl]ethyl}-2-methyl-1H-indole-3-carboxamide] as the compound, how does the “percent target protein degradation class” value read?
Answer: B (B = degradation between 30% and 60%)

Question: With `CCN(c1cc(-c2ccc(OCCOCCOCCOCCOCCOCC(=O)N[C@H](C(=O)N3C[C@H](O)C[C@H]3C(=O)NCc3ccc(-c4scnc4C)cc3)C(C)(C)C)cc2)cc(C(=O)NCc2c(C)cc(C)[nH]c2=O)c1C)C1CCOCC1` [Compound 15, (2S,4R)-1-[(2S)-2-{1-[4-(3-{[(4,6-dimethyl-2-oxo-1,2-dihydropyridin-3-yl)methyl]carbamoyl}-5-[ethyl(oxan-4-yl)amino]-4-methylphenyl)phenyl]-1,4,7,10,13,16-hexaoxaoctadecan-18-amido}-3,3-dimethylbutanoyl]-4-hydroxy-N-{[4-(4-methyl-1,3-thiazol-5-yl)phenyl]methyl}pyrrolidine-2-carboxamide] as the compound, how does the “percent target protein degradation class” value read?
Answer: B (B = degradation between 30% and 60%)

Question: Which “percent target protein degradation class” value does the source give for `CCN(c1cc(-c2ccc(OCCOc3ccc4c(c3)C(=O)N([C@H](C(=O)N3C[C@H](O)C[C@H]3C(=O)N[C@@H](C)c3ccc(-c5scnc5C)cc3)C(C)C)C4)cc2)cc(C(=O)NCc2c(C)cc(C)[nH]c2=O)c1C)C1CCOCC1` [Compound 100] here?
Answer: A (A = degradation more than 60%)

Question: For `CCN(c1cc(-c2ccc(OCCCCOc3cc(C(C(=O)N4C[C@H](O)C[C@H]4C(=O)N[C@@H](C)c4ccc(-c5scnc5C)cc4)C(C)C)on3)cc2)cc(C(=O)NCc2c(C)cc(C)[nH]c2=O)c1C)C1CCOCC1` (stereo partly drawn) [Compound 107, (2S,4R)-1-(2-(3-(4-(3′-((4,6-dimethyl-2-oxo-1,2-dihydropyridin-3-yl)methylcarbamoyl)-5′-(ethyl(tetrahydro-2H-pyran-4-yl)amino)-4′-methylbiphenyl-4-yloxy)butoxy)isoxazol-5-yl)-3-methylbutanoyl)-4-hydroxy-N—((S)-1-(4-(4-methylthiazol-5-yl)phenyl)ethyl)pyrrolidine-2-carboxamide], which “percent target protein degradation class” value is on record?
Answer: A (A = degradation more than 60%)
